Patent US4632828A, “Pharmaceutical composition” (priority 1984, dated 1986)

Key:
[1] = Differential Scanning Calorimetry of MAP/swellable polymer systems; format: physicochemical; settings: DSC; for % Residual of Original Heat of Fusion: relative to pure crystalline MAP
Source text: Alternatively, the grinding of the MAP-swellable polymer mixture can be stopped at any time the original crystalline form of MAP has been transformed into another, more energetic form.

[2] = Solubility (saturation concentration) of MAP/swellable polymer systems; format: physicochemical; settings: pH 5.5 phosphate buffer, 37° C.
Procedure: The flasks were placed in a shaking thermostated apparatus and aliquots of sample solutions were taken by filtering through a Millipore membrane. The concentration of MAP in the filtered aliquot was determined both by spectrophotometry (SP8-100, Pye Unicam), after dilution with methanol, and by HPLC (column: Spherisorb S30DS2, Phase Sep.; mobile phase: acetonitrile/water 70/30 v/v; flow rate: 1 ml/min; U.V. detection, λ=242 nm), after dilution with acetonitrile.

Structure (SMILES)	Heat of Fusion [1] [J/g]	Melting Point [1]	% Residual of Original Heat of Fusion [1] [%]	Melting Point ([1]; listed as pure MAP) [°C]	Solubility ([2]; 5 min) [µg/mL]	Solubility ([2]; 15 min) [µg/mL]	Solubility ([2]; 1 hr) [µg/mL]	Solubility ([2]; 6 hrs) [µg/mL]
CC(=O)O[C@]1(C(C)=O)CC[C@H]2[C@@H]3C[C@H](C)C4=CC(=O)CC[C@]4(C)[C@H]3CC[C@@]21C [Micronized pure MAP, 6α-methyl, 17α-hydroxy-progesterone acetate]	82.798	205.3 °C	94.1					
CC(=O)O[C@]1(C(C)=O)CC[C@H]2[C@@H]3C[C@H](C)C4=CC(=O)CC[C@]4(C)[C@H]3CC[C@@]21C [Pure crystalline MAP, 6α-methyl, 17α-hydroxy-progesterone acetate]	88.003	205-206 °C	100	205.6	< 0.04	0.32	0.68	1.00
